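96-well plates; 48 h exposure; 5 concentrations. Endpoints by linear interpolation between flanking doses. Not reached: highest tested concentration assigned. TGI marks complete inhibition of growth.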
Columns and labels:
Assay in all cases: inhibition of tumour cell growth, NCI panel, 48 h
[1] = system: HCT-116 colon
[2] = system: HS 578T breast
[3] = system: IGROV1 ovarian
[4] = system: K-562 leukemia
[5] = system: MOLT-4 leukemia
[6] = system: NCI-H226 lung
[7] = system: OVCAR-3 ovarian
[8] = system: OVCAR-4 ovarian
[9] = system: OVCAR-5 ovarian
[10] = system: RXF 393 renal
[11] = system: SK-MEL-28 melanoma
[12] = system: SK-MEL-5 melanoma
[13] = system: SNB-19 CNS
[14] = system: T-47D breast
[15] = system: U251 CNS
[16] = system: UO-31 renal
[17] = system: NCI-H460 lung
[18] = system: OVCAR-8 ovarian
[19] = system: SF-295 CNS
[20] = system: UACC-257 melanoma

Measured: TGI

CCOC(=O)c1ccc(NCC#CCN2CCOCC2)cc1
not listed: [17] | [18] | [19] | [20]
> 100 µM: all other assays above

N#CC12C(=O)N=C(N)C1(C#N)C(c1ccco1)NC1=C2CCCC1 (stereo unspecified)
not listed: [4] | [7]
> 100 µM: all other assays above

Cc1ccc(C(=C2Sc3ccccc3S2)C(=C2Sc3ccccc3S2)c2ccc(C)s2)s1
not listed: [17]
> 100 µM: all other assays above

CS(=O)(=O)OCC(CCl)(CCl)CCl
not listed: [3] | [9]
> 100 µM: all other assays above

Source: PubChem BioAssay (NCI)
